According to patent US20090143279A1 (priority 2007, published 2009):
Like-named read-outs stand apart in the source and are kept apart here.

Legend:
[1] = tested on: mitochondrial membrane potential; type: cell-based, mouse
[2] = tested on: reactive oxygen species; type: cell-based, mouse
[3] = tested on: OXPHOS gene expression; type: cell-based, mouse
[4] = tested on: nuOXPHOS transcripts; type: cell-based, mouse
[5] = tested on: mtOXPHOS transcripts; type: cell-based, mouse
[6] = tested on: cytochrome c; type: cell-based, mouse
[7] = tested on: C2C12 myotubes
[8] = tested on: cellular dehydrogenase activity
[9] = 20 μM, composite Z-score vs DMSO
[10] = composite Z-score vs DMSO wells, Conc 20 μM
[11] = composite Z-score vs DMSO, Conc 20 μM
[12] = Conc 20 μM, normalized score vs mock-treated (DMSO) wells
[13] = composite Z-score vs mock-treated (DMSO) wells, Conc 20 μM
[14] = normalized composite Z-score vs mock-treated (DMSO) wells, Conc 20 μM

Work on `CCOC(=O)CCC(=O)O[C@H]1[C@H](O[C@@H]2[C@@H](C)[C@H](O[C@H]3C[C@@](C)(OC)[C@@H](O)[C@H](C)O3)[C@@H](C)C(=O)O[C@H](CC)[C@@](C)(O)[C@H](O)[C@@H](C)C(=O)[C@H](C)C[C@@]2(C)O)O[C@H](C)C[C@@H]1N(C)C` [erythromycin ethylsuccinate] yielded a ΔΨm [1, 9] of −0.488, an ROS [2, 9] of 0.555 and a GE-HTS [3, 9] of −0.390. For the same molecule, the nucOX [4, 9] was −0.433, the mitoOX [5, 9] was −0.163 and the cyt c [6, 9] was 0.220. For the same molecule, the Viability [7, 9] was −0.945 and the MTT [8, 9] was −1.100.

Work on `C[C@]12CC[C@@H]3c4ccc(O)cc4CC[C@H]3[C@@H]1CC[C@@H]2OC(=O)CCC1CCCC1` [estradiol cypionate] yielded a ΔΨm [1, 10] of −0.489, an ROS [2, 10] of −0.010 and a GE-HTS [3, 10] of −0.124. The nucOX [4, 10] was 0.072, the mitoOX [5, 10] was −0.418 and the cyt c [6, 10] was 0.408. It also gave a Viability [7, 10] of 0.219 and an MTT [8, 10] of −2.428.

Work on `COc1ccc2c(c1)CC[C@@H]1[C@@H]2CC[C@]2(C)[C@@H](O)CC[C@@H]12` [estradiol methyl ether] yielded a ΔΨm [1, 11] of −0.007, an ROS [2, 11] of 0.411 and a GE-HTS [3, 11] of 0.099. For the same molecule, the nucOX [4, 11] was 0.214, the mitoOX [5, 11] was −0.209 and the cyt c [6, 11] was 1.670. The Viability [7, 11] was 0.510 and the MTT [8, 11] was −0.685.

`C[C@]12CC[C@@H]3c4ccc(O)cc4CC[C@H]3[C@@H]1CC[C@@H]2O` [estradiol] showed a ΔΨm [1, 11] of −0.085, an ROS [2, 11] of 0.310 and a GE-HTS [3, 11] of 0.290. For the same molecule, the nucOX [4, 11] was 0.410, the mitoOX [5, 11] was −0.058 and the cyt c [6, 11] was 0.389. It also gave a Viability [7, 11] of 0.400 and an MTT [8, 11] of −1.040.

In the case of `C[C@]12CCC3c4ccc(OC(=O)c5ccccc5)cc4CCC3C1CCC2=O` (stereo partly shown) [estrone benzoate], the ΔΨm [1, 11] was −0.277, the ROS [2, 11] was 0.210 and the GE-HTS [3, 11] was 0.061. It also gave a nucOX [4, 11] of 0.190, a mitoOX [5, 11] of −0.179 and a cyt c [6, 11] of 0.406. For the same molecule, the Viability [7, 11] was 0.154 and the MTT [8, 11] was −0.807.

In the case of `CCC(N)C(O)c1ccc(O)c(O)c1` (stereo not shown) [ethylnorepinephrine], the “ΔΨm (composite Z-score)” value [1, 12] was −2.053, the “ROS (composite Z-score)” value [2, 12] was −0.396 and the “GE-HTS (composite Z-score)” value [3, 12] was −0.475. The “nucOX (composite Z-score)” value [4, 12] was −0.195, the “mitoOX (composite Z-score)” value [5, 12] was −0.921 and the “cyt c (composite Z-score)” value [6, 12] was −0.439. For the same molecule, the “Viability (composite Z-score)” value [7, 12] was −0.508 and the “MTT (composite Z-score)” value [8, 12] was −1.017.

In the case of `COc1cc([C@@H]2c3cc4c(cc3[C@@H](O[C@@H]3O[C@@H]5CO[C@@H](C)O[C@H]5[C@H](O)[C@H]3O)[C@H]3COC(=O)[C@H]23)OCO4)cc(OC)c1O` [etoposide], the ΔΨm [1, 11] was 0.050, the ROS [2, 11] was −1.736 and the GE-HTS [3, 11] was 0.725. It also gave a nucOX [4, 11] of 0.355, a mitoOX [5, 11] of 1.373 and a cyt c [6, 11] of −0.491. For the same molecule, the Viability [7, 11] was −1.541 and the MTT [8, 11] was −2.352.

In the case of `Cc1cc(=O)c2c(O)c(C)c(O)cc2o1` [eugenitol], the ΔΨm [1, 13] was −0.541, the ROS [2, 13] was 1.256 and the GE-HTS [3, 13] was 0.471. The nucOX [4, 13] was 0.168, the mitoOX [5, 13] was 0.962 and the cyt c [6, 13] was −0.041. It also gave a Viability [7, 13] of −0.575 and an MTT [8, 13] of −1.139.

With `C=CCc1ccc(O)c(OC)c1` [eugenol] the ΔΨm [1, 9] was −0.816, the ROS [2, 9] was 1.068 and the GE-HTS [3, 9] was −0.254. It also gave a nucOX [4, 9] of −0.166, a mitoOX [5, 9] of −0.320 and a cyt c [6, 9] of 0.307. The Viability [7, 9] was −0.943 and the MTT [8, 9] was −0.243.

`C=C(C)c1cc2cc(C(C)=O)c(O)cc2o1` [euparin] gave a ΔΨm [1, 13] of −0.010, an ROS [2, 13] of 0.795 and a GE-HTS [3, 13] of 1.120. For the same molecule, the nucOX [4, 13] was 1.293, the mitoOX [5, 13] was 0.484 and the cyt c [6, 13] was 0.419. For the same molecule, the Viability [7, 13] was 0.021 and the MTT [8, 13] was −0.912.

`COc1cc(C)c(C(=O)O)c(O)c1` [everninic acid] gave a ΔΨm [1, 14] of −0.942, an ROS [2, 14] of 0.423 and a GE-HTS [3, 14] of 1.491. It also gave a nucOX [4, 14] of 1.517, a mitoOX [5, 14] of 1.116 and a cyt c [6, 14] of 0.115. The Viability [7, 14] was −0.592 and the MTT [8, 14] was −1.123.
